Assay results taken from article PMC5902452, “In silico optimization of a guava antimicrobial peptide enables combinatorial exploration for peptide design” (Nature Communications, 2018).
≈ marks a conversion by molar mass, not a printed value. Peptide text beside a SMILES is read from it.

Tests used:
[1] = test system: P. aeruginosa H1001 (fliC::luxCDABE); format: cell-based, Pseudomonas aeruginosa; details: SPOT-synthesized unpurified crude peptide (~70% purity); bioluminescent engineered P. aeruginosa; BM2 medium; 4 h, 37 °C; reduction of luminescence; 200 to 3 μg mL−1 tested
Protocol: A peptide array composed of 20 peptides (15 guavanins, 4 Pg-AMP1 fragments, and magainin 2) was designed and synthesized by Kinexus Bioinformatics Corporation (Vancouver, BC). Peptides were produced in a standard mass of 80 μg by using cellulose support in SPOT technology. The crude synthetic peptides were obtained from cellulose membrane discs that had already been treated with ammonia gas to release the peptides from the membrane. Peptides were then dissolved overnight in distilled water and subsequently evaluated for their biological activities, as described below.
The antimicrobial activity of the synthesized peptides was evaluated against an engineered luminescent P. aeruginosa H1001 (fliC::luxCDABE) strain in 96-well microplates. Aqueous solutions of peptides released from the cellulose spots were diluted twofold in BM2 medium [62 mM potassium phosphate buffer pH 7; 2 mM MgSO4; 10 μM FeSO4; 0.4% (wt/vol) glucose] down the eight wells of a 96-well plate, achieving a final volume of 25 μL in each well. Subsequently, 50 μL of overnight culture of P. aeruginosa H1001 (fliC::luxCDABE) were subcultured in 5 mL of fresh LB media and grown until they reached an OD600 of 0.4. This growing bacteria culture was then diluted 4:100 (v/v) into fresh BM2 media and 25 μL of this diluted bacterial culture was transferred to the microplate wells containing 25 μL of peptide solution. The final peptide concentrations tested ranged from 200 to 3 μg mL^−1. The plates were incubated for 4 h at 37 °C with constant shaking at 50 rpm. Luminescence was measured on a Tecan […]luor Plus Microplate Reader (Tecan US, Morrisville, NC). The antimicrobial activity was evaluated by the ability of the peptides to reduce the luminescence of P. aeruginosa-lux strain compared to untreated cells. The AMP magainin 2 and the carbapenem meropenem were used as positive controls and distilled water was used as a negative control.

[2] = test system: human erythrocytes; test: Hemolytic assay; details: SPOT-synthesized crude peptides; human red blood cells in NaCl 0.85%, 1 h, 37 °C; hemoglobin release at 546 nm; highest concentration 200 μg mL−1; 100% of hemolysis was not observed
Protocol: Fresh human venous blood was collected from volunteers in Vacutainer collection tubes containing sodium heparin as an anticoagulant (BD Biosciences, Franklin Lakes, NJ). The blood was centrifuged applying 151 × g force (1500 rpm) and the serum was removed and the blood cells were replaced and washed three times with the same volume of sterile NaCl 0.85% solution. Concentrated red blood cells were diluted tenfold in NaCl 0.85% solution and then exposed at twofold dilutions of peptides for 1 h at 37 °C, at identical concentrations used for antimicrobial assays, in the ratio of 1:1 (v/v), achieving a final volume of 100 μL. The assay was carried out in 96-well polypropylene microtiter plates. The positive control wells contained 1% of Triton X-100, representing 100% cell lysis, and negative control wells contained sterile saline. Hemoglobin release was monitored chromogenically at 546 nm using a microplate reader.

SMILES | MIC [1] | Hemolysis [2]
CSCC[C@H](NC(=O)[C@H](CC(C)C)NC(=O)[C@H](Cc1ccc(O)cc1)NC(=O)[C@@H](N)CCCNC(=N)N)C(=O)N[C@@H](CCC(=O)O)C(=O)N[C@@H](Cc1ccc(O)cc1)C(=O)N[C@@H](C)C(=O)N[C@@H](CCC(=O)O)C(=O)N[C@@H](CCC(N)=O)C(=O)N[C@@H](C)C(=O)N[C@@H](CCCCN)C(=O)N[C@@H](CCCNC(=N)N)C(=O)N[C@@H](CC(=O)O)C(=O)N[C@@H](C)C(=O)N[C@@H](CCCCN)C(=O)N[C@@H](CCCNC(=N)N)C(=O)N[C@@H](C)C(=O)N[C@@H](Cc1ccc(O)cc1)C(=O)N[C@@H](CCCNC(=N)N)C(=O)N[C@@H](CCCNC(=N)N)C(N)=O [Guavanin 10] (H-RYLMEYAEQAKRDAKRAYRR-NH2) | 200 µg/mL (≈ 77.7 µM) | > 200 µg/mL
CC(C)[C@H](NC(=O)CNC(=O)[C@H](CCC(N)=O)NC(=O)CNC(=O)[C@@H](NC(=O)[C@@H]1CCCN1C(=O)[C@H](CCC(N)=O)NC(=O)CN)C(C)C)C(=O)N[C@@H](CCC(=O)O)C(=O)N[C@@H](CCCNC(=N)N)C(=O)N[C@@H](CO)C(=O)N[C@@H](Cc1c[nH]cn1)C(=O)N[C@@H](CC(=O)O)C(=O)N[C@@H](CC(=O)O)C(=O)N[C@@H](CC(N)=O)C(=O)N[C@@H](CCCNC(=N)N)C(=O)N[C@@H](CC(N)=O)C(=O)N[C@@H](CCC(N)=O)C(=O)N1CCC[C@H]1C(=O)N[C@@H](CCCNC(=N)N)C(N)=O [Fragment 4 (hydrophobic moment)] (H-GQPVGQGVERSHDDNRNQPR-NH2) | > 200 µg/mL | > 200 µg/mL
N=C(N)NCCC[C@H](NC(=O)CNC(=O)[C@H](CO)NC(=O)CNC(=O)[C@H](Cc1ccc(O)cc1)NC(=O)CNC(=O)CNC(=O)CNC(=O)[C@H](Cc1ccc(O)cc1)NC(=O)[C@H](CCCNC(=N)N)NC(=O)CNC(=O)CNC(=O)CNC(=O)[C@H](Cc1ccc(O)cc1)NC(=O)CNC(=O)CNC(=O)[C@H](Cc1ccc(O)cc1)NC(=O)CNC(=O)[C@@H](N)Cc1ccc(O)cc1)C(=O)NCC(N)=O [Fragment 3 (hydrophobicity)] (H-YGYGGYGGGRYGGGYGSGRG-NH2) | > 200 µg/mL | > 200 µg/mL
CC[C@H](C)[C@H](NC(=O)CNC(=O)[C@H](CCCNC(=N)N)NC(=O)[C@H](CCC(N)=O)NC(=O)CNC(=O)[C@H](CCCCN)NC(=O)[C@H](CCCNC(=N)N)NC(=O)[C@H](CC(C)C)NC(=O)[C@H](C)NC(=O)[C@H](CCCNC(=N)N)NC(=O)[C@H](CCC(=O)O)NC(=O)[C@H](Cc1ccc(O)cc1)NC(=O)[C@H](C)NC(=O)[C@H](CCC(=O)O)NC(=O)[C@H](Cc1ccc(O)cc1)NC(=O)[C@H](Cc1ccc(O)cc1)NC(=O)[C@H](CO)NC(=O)[C@@H](N)CCCNC(=N)N)C(=O)N[C@@H](CCCNC(=N)N)C(=O)N[C@@H](CCCNC(=N)N)C(N)=O [Guavanin 8] (H-RSYYEAYERALRKGQRGIRR-NH2) | 100 µg/mL (≈ 39.6 µM) | > 200 µg/mL
CSCC[C@H](NC(=O)[C@H](Cc1ccc(O)cc1)NC(=O)[C@H](CCCNC(=N)N)NC(=O)[C@@H](N)CCCNC(=N)N)C(=O)N[C@@H](CCC(=O)O)C(=O)N[C@@H](CS)C(=O)N[C@@H](Cc1ccc(O)cc1)C(=O)N[C@@H](CCC(=O)O)C(=O)N[C@@H](CCC(N)=O)C(=O)N[C@@H](C)C(=O)N[C@@H](CCC(=O)O)C(=O)N[C@@H](CCCNC(=N)N)C(=O)N[C@@H](Cc1ccc(O)cc1)C(=O)N[C@@H](Cc1ccccc1)C(=O)N[C@@H](CCCNC(=N)N)C(=O)N[C@@H](CCCNC(=N)N)C(=O)N[C@@H](Cc1ccccc1)C(=O)NCC(=O)N[C@@H](CCCNC(=N)N)C(=O)N[C@@H](CCCNC(=N)N)C(N)=O [Guavanin 13] (H-RRYMECYEQAERYFRRFGRR-NH2) | 25 µg/mL (≈ 9.02 µM) | > 200 µg/mL
CC[C@H](C)[C@H](NC(=O)[C@H](CCCNC(=N)N)NC(=O)[C@H](CC(N)=O)NC(=O)[C@H](Cc1ccccc1)NC(=O)[C@H](Cc1ccc(O)cc1)NC(=O)[C@H](CCCNC(=N)N)NC(=O)[C@H](Cc1ccccc1)NC(=O)[C@H](C)NC(=O)[C@H](CCC(=O)O)NC(=O)[C@H](CCC(=O)O)NC(=O)[C@H](Cc1ccc(O)cc1)NC(=O)[C@H](CCSC)NC(=O)[C@H](CCC(=O)O)NC(=O)[C@H](CCSC)NC(=O)[C@H](CC(C)C)NC(=O)[C@H](CCCCN)NC(=O)[C@@H](N)CCCNC(=N)N)C(=O)N[C@@H](CO)C(=O)N[C@@H](CCCNC(=N)N)C(=O)N[C@@H](CCCNC(=N)N)C(N)=O [Guavanin 5] (H-RKLMEMYEEAFRYFNRISRR-NH2) | 100 µg/mL (≈ 37.1 µM) | > 200 µg/mL
CC(C)C[C@H](NC(=O)[C@H](CCCCN)NC(=O)[C@@H](N)CCCNC(=N)N)C(=O)N[C@H](C(=O)N[C@@H](CCC(=O)O)C(=O)N[C@@H](CS)C(=O)N[C@@H](Cc1ccc(O)cc1)C(=O)N[C@@H](CCC(=O)O)C(=O)N[C@@H](CCCNC(=N)N)C(=O)N[C@@H](C)C(=O)N[C@@H](CCC(=O)O)C(=O)N[C@@H](CCCNC(=N)N)C(=O)N[C@@H](CC(=O)O)C(=O)N[C@@H](C)C(=O)N[C@@H](CC(N)=O)C(=O)N[C@@H](CCCNC(=N)N)C(=O)N[C@@H](CO)C(=O)NCC(=O)N[C@@H](CCCNC(=N)N)C(=O)N[C@@H](CCCNC(=N)N)C(N)=O)C(C)C [Guavanin 15] (H-RKLVECYERAERDANRSGRR-NH2) | 200 µg/mL (≈ 81.2 µM) | > 200 µg/mL
CC[C@H](C)[C@H](NC(=O)[C@H](CCCNC(=N)N)NC(=O)[C@H](CC(N)=O)NC(=O)CNC(=O)[C@H](Cc1ccc(O)cc1)NC(=O)[C@H](CCCNC(=N)N)NC(=O)[C@H](CO)NC(=O)[C@H](C)NC(=O)[C@H](CCC(N)=O)NC(=O)[C@H](CCC(=O)O)NC(=O)[C@H](Cc1ccc(O)cc1)NC(=O)[C@H](CS)NC(=O)[C@H](CCCCN)NC(=O)[C@H](CCSC)NC(=O)[C@H](Cc1ccccc1)NC(=O)[C@H](CO)NC(=O)[C@@H](N)CCCNC(=N)N)C(=O)N[C@@H](CC(C)C)C(=O)N[C@@H](CCCNC(=N)N)C(=O)N[C@@H](CCCNC(=N)N)C(N)=O [Guavanin 14] (H-RSFMKCYEQASRYGNRILRR-NH2) | 12.5 µg/mL (≈ 4.93 µM) | > 200 µg/mL
CC[C@H](C)[C@H](NC(=O)[C@H](CCCNC(=N)N)NC(=O)[C@H](CCC(=O)O)NC(=O)[C@H](Cc1ccc(O)cc1)NC(=O)[C@H](CCC(N)=O)NC(=O)[C@H](CCCCN)NC(=O)[C@H](CCSC)NC(=O)CNC(=O)[C@H](CCCNC(=N)N)NC(=O)[C@@H](N)CCCNC(=N)N)C(=O)N[C@@H](CO)C(=O)N[C@@H](CCCNC(=N)N)C(=O)N[C@@H](CC(=O)O)C(=O)N[C@@H](C)C(=O)N[C@@H](CC(N)=O)C(=O)N[C@@H](CCCNC(=N)N)C(=O)N[C@@H](CO)C(=O)N[C@@H](Cc1ccc(O)cc1)C(=O)N[C@@H](CCCNC(=N)N)C(=O)N[C@@H](CCCNC(=N)N)C(N)=O [Guavanin 1] (H-RRGMKQYERISRDANRSYRR-NH2) | 200 µg/mL (≈ 77 µM) | > 200 µg/mL
CC[C@H](C)[C@H](NC(=O)[C@H](CO)NC(=O)[C@H](CCC(=O)O)NC(=O)[C@H](Cc1ccc(O)cc1)NC(=O)[C@@H](NC(=O)[C@H](CCC(N)=O)NC(=O)[C@@H](N)CCCNC(=N)N)[C@@H](C)CC)C(=O)N[C@@H](CCC(=O)O)C(=O)N[C@@H](CCC(N)=O)C(=O)N[C@@H](C)C(=O)N[C@@H](CC(C)C)C(=O)N[C@@H](CCCNC(=N)N)C(=O)N[C@@H](CCCNC(=N)N)C(=O)NCC(=O)N[C@@H](Cc1ccc(O)cc1)C(=O)N[C@@H](CCCNC(=N)N)C(=O)N[C@@H](CO)C(=O)N[C@@H](Cc1ccc(O)cc1)C(=O)N[C@@H](CCCNC(=N)N)C(=O)N[C@@H](CCCNC(=N)N)C(N)=O [Guavanin 7] (H-RQIYESIEQALRRGYRSYRR-NH2) | 200 µg/mL (≈ 76.9 µM) | > 200 µg/mL
CC[C@H](C)[C@H](NC(=O)CN)C(=O)NCC(=O)N[C@@H](CCCCN)C(=O)N[C@@H](Cc1ccccc1)C(=O)N[C@@H](CC(C)C)C(=O)N[C@@H](Cc1c[nH]cn1)C(=O)N[C@@H](CO)C(=O)N[C@@H](C)C(=O)N[C@@H](CCCCN)C(=O)N[C@@H](CCCCN)C(=O)N[C@@H](Cc1ccccc1)C(=O)NCC(=O)N[C@@H](CCCCN)C(=O)N[C@@H](C)C(=O)N[C@@H](Cc1ccccc1)C(=O)N[C@H](C(=O)NCC(=O)N[C@@H](CCC(=O)O)C(=O)N[C@H](C(=O)N[C@@H](CCSC)C(=O)N[C@@H](CC(N)=O)C(=O)N[C@@H](CO)C(N)=O)[C@@H](C)CC)C(C)C [Magainin 2, reference compound] (H-GIGKFLHSAKKFGKAFVGEIMNS-NH2) | 100 µg/mL (≈ 40.6 µM) | 
N=C(N)NCCC[C@H](NC(=O)CNC(=O)[C@H](CO)NC(=O)CNC(=O)[C@H](Cc1ccc(O)cc1)NC(=O)CNC(=O)CNC(=O)CNC(=O)[C@H](Cc1ccc(O)cc1)NC(=O)[C@H](CCCNC(=N)N)NC(=O)CNC(=O)CNC(=O)CNC(=O)[C@H](Cc1ccc(O)cc1)NC(=O)CNC(=O)CNC(=O)[C@H](Cc1ccc(O)cc1)NC(=O)CNC(=O)[C@H](Cc1ccc(O)cc1)NC(=O)[C@@H](N)CCCNC(=N)N)C(N)=O [Fragment 2 (net charge)] (H-RYGYGGYGGGRYGGGYGSGR-NH2) | 200 µg/mL (≈ 99.2 µM) | 100 µg/mL
